Assay results: paper PMC3408453, “A Foldamer-Dendrimer Conjugate Neutralizes Synaptotoxic β-Amyloid Oligomers” (PLoS ONE, 2012)

Key:
[1] = biological target: T1, LMW fraction of Aβ oligomers (Homo sapiens, UniProt P05067); experiment: Concentration-dependent dot blot with SEC-separated LMW Aβ oligomer fraction; format: binding; conditions: 10 µg ligand spotted, BAM10 1∶500
T1 construct: a depsipeptide derivative of Aβ(1–42) was utilized; made in house; host or cells: chemical peptide synthesis (no expression host)
T1 sequence (P05067 672-713 limits assumed): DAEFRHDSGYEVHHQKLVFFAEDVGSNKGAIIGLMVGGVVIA
Method: ITC measurement for 7 indicated fractional stoichiometry for the low nM binding, which pointed to that the high affinity interaction involves only a fraction of the oligomeric Aβ sample. To localize the strongly binding fraction in the mixture, size exclusion chromatographic (SEC) separation was carried out and the resulting Aβ oligomer fractions were tested with 7 in concentration-dependent dot blot experiments. Two dominant peaks were found in the SEC chromatogram corresponding to the high molecular weight (HMW) and low molecular weight (LMW) components (Figure 7). […] In control experiments, specific and/or preferential binding of Aβ by the membrane itself were ruled out. These findings were in line with the ITC and ELISA results. It could be concluded that 7 preferentially bound to the LMW fraction at low nM concentration and also interacted with the HMW fraction at sub-µM level.
Figure 7 Selective binding to the LMW Aβ oligomers in the nM range. Size exclusion chromatographic separation of the HMW and LMW fractions of the Aβ oligomeric sample (top panel). Concentration-dependent dot blot experiments performed with the HMW (A) and the LMW fractions (B). The ligand loadings were 10 µg aliquots of 7, and the sequence specific antibody BAM10 (1∶500) was utilized. Lanes within the panels are parallel experiments. […]

Aβ oligomers = biological target: T2, Aβ oligomers (Homo sapiens, UniProt P05067); experiment: Electronic circular dichroism of Aβ oligomer with ligand; conditions: 0.25 equivalents ligand with 36 μM Aβ
T2 construct: a depsipeptide derivative of Aβ(1–42) was utilized; made in house; host or cells: chemical peptide synthesis (no expression host)
T2 sequence (P05067 672-713 limits assumed): as above
Text: The data on 7 were in agreement with its largely helical structure, also found via NMR. […] This was in accord with the NMR results obtained for the recognition segment 1. The secondary structure was probed also with ThT binding experiments (Figure 9B). Pure Aβ oligomers bound ThT at a certain level. This was in accord with the staining with antibody OC; both are capable of recognizing the fibrillar (or protofibrillar) oligomers. […] The latter process is similar to affinity precipitation.
(A) Observed ellipticities in ECD for 36 μM Aβ oligomer (thick black), 9 μM 7 (thin black), and 36 μM Aβ +9 μM 7 (thick dashed). The hypothetical sum of the ECD curves of the pure samples (thin dashed). (B) ThT binding experiment carried out on 36 µM oligomeric Aβ (white bars) and on 36 µM oligomeric Aβ +7 1∶1 mixtures. The relative fluorescence values were monitored up to 24 h.
CD spectra were measured on a Jasco J815 dichrograph in a 1.00 cm cell using PBS (pH = 7.4) as solvent. Three spectra were accumulated for each sample. The baseline spectrum recorded with only the solvent and it was subtracted from the raw data.

[2] = system: LTP in mouse hippocampal slices impaired by Aβ(1–42) oligomers; experiment: Ex vivo hippocampal slice LTP electrophysiology; format: cell-based; conditions: mean ±SEM
Text: We investigated whether 7 could protect against the synaptic plasticity damage caused by Aβ(1–42) oligomers by using a hippocampus slice LTP model. LTP, a correlate of learning and memory has been repeatedly shown to be impaired by Aβ(1–42) oligomers. As negative control, substance 11 was applied. The experimenters were blind to the compounds tested.
These observations indicate the significant protective effect of 7 (Figure 12D). To test the effects of valency, LTP experiments were repeated with 8 under the same conditions.
Via standard procedures, 350-µm-thick transverse hippocampal slices were prepared from the brain of 7-months-old mice (CD1, Animal Breeding Facility, University of Szeged) with a McIlwain tissue chopper (Campden Instruments, Loughborough, UK). Slices were incubated in standard artificial cerebrospinal fluid (ACSF) at ambient temperature for 60 min, during constant gassing with 95% O2–5% CO2. The ACSF contained (mM): NaCl, 130; KCl, 3.5; CaCl2, 2; MgCl2, 2; NaH2PO4, 0.96; NaHCO3, 24; and D-glucose, 10 (pH 7.4). Individual slices were transferred to a 3D-MEA chip with 60 tip-shaped and 60-μm-high electrodes spaced at 100 μm (Ayanda Biosystems, S.A., Lausanne, Switzerland). The slice was continuously perfused with oxygenated ACSF (1.5 ml min^−1 at 34 °C) containing 720 nM Aβ(1–42) oligomers and/or 950 nM ligand throughout the recording session. Data were recorded with a standard, commercially available MEA setup (Multi Channel Systems MCS GmbH, Reutlingen, Germany). The Schaffer-collateral was stimulated by injecting a biphasic current waveform (−100/+100 μs) through one selected electrode at 0.033 Hz. Care was taken to choose the stimulating electrode in the same region from one slice to the other. The peak-to-peak amplitudes of fEPSPs at the stratum pyramidale and stratum radiatum of CA1 were analyzed. After a 30-min incubation period, the threshold and the maximum of stimulation intensity for evoke responses was determined. To evoke responses, 30% of the maximal stimulation intensity was used. LTP was induced by applying a theta-burst stimulation (TBS) pattern at the maximal stimulation intensity. The TBS comprised four trains administered at 20-s intervals with 10 bursts given at 5 Hz per train and 4 pulses at 100 Hz per burst. Statistical analysis was carried out by using two-tailed Student's t-test. For representative raw data see Figure S12.

## N=C(N)NCCC[C@@H](CC(=O)N[C@H]1CCCC[C@@H]1C(=O)N[C@H]1CCCC[C@@H]1C(=O)N[C@@H](CC(=O)O)CC(=O)N[C@H]1CCCC[C@@H]1C(=O)NCC(=O)NCC(=O)N[C@@H](CSC1CC(=O)N(CCC(=O)NCCNC(=O)CCN(CCC(=O)NCCNC(=O)CCN2C(=O)CC(SC[C@H](NC(=O)CNC(=O)CNC(=O)[C@H]3CCCC[C@@H]3NC(=O)C[C@H](CC(=O)O)NC(=O)[C@H]3CCCC[C@@H]3NC(=O)[C@H]3CCCC[C@@H]3NC(=O)C[C@H](CCCNC(=N)N)NC(=O)[C@H]3CCCC[C@@H]3N)C(N)=O)C2=O)CCN(CCC(=O)NCCNC(=O)CCN2C(=O)CC(SC[C@H](NC(=O)CNC(=O)CNC(=O)[C@H]3CCCC[C@@H]3NC(=O)C[C@H](CC(=O)O)NC(=O)[C@H]3CCCC[C@@H]3NC(=O)[C@H]3CCCC[C@@H]3NC(=O)C[C@H](CCCNC(=N)N)NC(=O)[C@H]3CCCC[C@@H]3N)C(N)=O)C2=O)CCC(=O)NCCNC(=O)CCN2C(=O)CC(SC[C@H](NC(=O)CNC(=O)CNC(=O)[C@H]3CCCC[C@@H]3NC(=O)C[C@H](CC(=O)O)NC(=O)[C@H]3CCCC[C@@H]3NC(=O)[C@H]3CCCC[C@@H]3NC(=O)C[C@H](CCCNC(=N)N)NC(=O)[C@H]3CCCC[C@@H]3N)C(N)=O)C2=O)C1=O)C(N)=O)NC(=O)[C@H]1CCCC[C@@H]1N (stereo partly shown) [Compound 7]
[1]
  Dot blot binding of LMW Aβ oligomer fraction: saturation of binding in the low nanomolar region
Aβ oligomers
  ECD: effect on β-sheet content of Aβ: did not lead to an immediate increase in the β-sheet content
[2]; 720 nM Aβ(1–42) oligomers + 950 nM ligand, 180 min after LTP induction
  LTP (potentiation) with Aβ(1–42) oligomers and ligand together: 195±5%
[2]; 950 nM ligand, no Aβ oligomers
  LTP (potentiation) with ligand alone: 184±16%
